What all share (format): cell-based
Assay [1] deals with Acinetobacter baumannii ATCC 17978. The settings on record: ATCC 17978. A digest of the protocol: (§1)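 In cation-adjusted Mueller-Hinton broth, each lipopeptide (TFA salt) was titrated against the bacteria by microdilution and the minimum inhibitory concentration recorded per CLSI M100-S24; polymyxin B sulphate ran in parallel.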
Assay [2] relates to Acinetobacter baumannii FADDI-AB034. As to conditions: FADDI-AB034. A digest of the protocol:
as §1

Assay [3] deals with Enterobacter cloacae FADDI-EC001. The settings on record: FADDI-EC001. In a few lines: (§2)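 Susceptibility of polymyxin-susceptible Gram-negative strains, including multidrug-resistant clinical isolates PA022 and AB034, was tested by broth microdilution. Cation-adjusted Mueller-Hinton broth and the CLSI M100-S24 method were used.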
Assay [4] relates to Enterobacter cloacae FADDI-EC003. The settings on record: FADDI-EC003. In a few lines:
as §1

The subject of assay [5] is Enterobacter cloacae FADDI-EC006. As to conditions: FADDI-EC006. A digest of the protocol: as §1
The test system of assay [6] is Klebsiella pneumoniae FADDI-KP022. The settings on record: FADDI-KP022. In a few lines:
as §1

Assay [7] relates to Klebsiella pneumoniae FADDI-KP032. As to conditions: FADDI-KP032. In a few lines:
as §1

Assay [8] has as its system Klebsiella pneumoniae Kp BM1. The settings on record: Kp BM1. In a few lines:
as §2

In assay [9] the test system is Pseudomonas aeruginosa ATCC 27853. As to conditions: ATCC 27853. In a few lines: as §1
For assay [10], the system named is Pseudomonas aeruginosa FADDI-PA01. As to conditions: FADDI-. In a few lines: as §1
Assay [11] concerns Pseudomonas aeruginosa FADDI-PA022. As to conditions: FADDI-PA022. In a few lines:
as §1

Assay [12] concerns Pseudomonas aeruginosa FADDI-PA038. As to conditions: FADDI-PA038. In a few lines: as §1
In assay [13] the test system is Acinetobacter baumannii FADDI-AB030. Nature of the assay: microbe, parasite or virus in culture. As to conditions: FADDI-AB030. In a few lines: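 Lipopeptide TFA salts tested against the multidrug-resistant clinical isolate by CLSI (M100-S24) broth microdilution in cation-adjusted Mueller-Hinton broth, with polymyxin B sulphate as control; MIC read.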

This passage reports Minimum inhibitory concentration results from US11225505B2, “Antimicrobial polymyxin derivative compounds” (MONASH UNIVERSITY, priority 2015, dated 2022).

≈ marks a conversion by molar mass, not a printed value. Where a SMILES comes first, the peptide text is derived from it. Bridges are numbered along the chain shown (N, C = ends). [ ]: non-standard residue; d: D form. The star is where a group is joined. X18 = O=C(c1cc(-c2ccccc2)[nH]n1)*; X44 = O=C(c1cc(-c2ccccc2)no1)*; X20 = O=C(c1ccc(C(F)(F)F)s1)*; X38 = O=C(c1cc2sccc2[nH]1)*; X50 = O=C(c1sc(Br)cc1Br)*; Dab = NCC[C@H](N)C(=O)O; X10 = O=C(c1cc(Br)cs1)*; Abu = CC[C@H](N)C(=O)O; Dap = NC[C@H](N)C(=O)O; X71 = O=C(c1sccc1Cl)*

On to `CC[C@@H]1NC(=O)[C@@H](CC(C)C)NC(=O)[C@H](CCN)NC(=O)[C@@H](NC(=O)[C@H](CN)NC(=O)[C@@H](NC(=O)[C@H](CCN)NC(=O)c2cc(-c3ccccc3)[nH]n2)[C@@H](C)O)CCNC(=O)[C@H]([C@@H](C)O)NC(=O)[C@H](CCN)NC(=O)[C@H](CCN)NC1=O` [Compound 84] (X18-[Dab]T[Dap][Dab][Dab][dL][Abu][Dab][Dab]T; lactam 4-C), for which the Minimum inhibitory concentration was 0.5 µg/mL (≈ 0.432 µM) in [1]; 0.5 µg/mL (≈ 0.432 µM) in assay [2]; 0.25 µg/mL (≈ 0.216 µM) in assay [3]; under 0.125 µg/mL in assay [4]; under 0.125 µg/mL in [5]; under 0.125 µg/mL in assay [6]. The Minimum inhibitory concentration in assay [7] is 0.25 µg/mL (≈ 0.216 µM); in [8] it was under 0.125 µg/mL; in assay [9] it was 0.25 µg/mL (≈ 0.216 µM); in [10], 0.25 µg/mL (≈ 0.216 µM); in [11], 0.25 µg/mL (≈ 0.216 µM); in assay [12] it was 0.5 µg/mL (≈ 0.432 µM). In [13], this molecule returned a Minimum inhibitory concentration of 0.5 µg/mL (≈ 0.432 µM).
As for `CC[C@@H]1NC(=O)[C@@H](CC(C)C)NC(=O)[C@H](CCN)NC(=O)[C@@H](NC(=O)[C@H](CN)NC(=O)[C@@H](NC(=O)[C@H](CCN)NC(=O)c2sc(Br)cc2Br)[C@@H](C)O)CCNC(=O)[C@H]([C@@H](C)O)NC(=O)[C@H](CCN)NC(=O)[C@H](CCN)NC1=O` [Compound 85] (X50-[Dab]T[Dap][Dab][Dab][dL][Abu][Dab][Dab]T; lactam 4-C), the Minimum inhibitory concentration in assay [1] was under 0.125 µg/mL; in assay [2], 0.25 µg/mL (≈ 0.199 µM); in [3] it was 0.25 µg/mL (≈ 0.199 µM); in assay [4] it was 0.25 µg/mL (≈ 0.199 µM); in assay [5], under 0.125 µg/mL; in assay [6] it was under 0.125 µg/mL. Further, the Minimum inhibitory concentration in assay [7] is under 0.125 µg/mL; in [8], 0.25 µg/mL (≈ 0.199 µM); in assay [9] it was 0.25 µg/mL (≈ 0.199 µM); in [10], 0.25 µg/mL (≈ 0.199 µM); in [11] it was 0.25 µg/mL (≈ 0.199 µM); in [12], 0.5 µg/mL (≈ 0.398 µM). In [13], this molecule came in with a Minimum inhibitory concentration of under 0.125 µg/mL.
On to `CC[C@@H]1NC(=O)[C@@H](CC(C)C)NC(=O)[C@H](CCN)NC(=O)[C@@H](NC(=O)[C@H](CN)NC(=O)[C@@H](NC(=O)[C@H](CCN)NC(=O)c2ccc(C(F)(F)F)s2)[C@@H](C)O)CCNC(=O)[C@H]([C@@H](C)O)NC(=O)[C@H](CCN)NC(=O)[C@H](CCN)NC1=O` [Compound 86] (X20-[Dab]T[Dap][Dab][Dab][dL][Abu][Dab][Dab]T; lactam 4-C), for which the Minimum inhibitory concentration in [1] was under 0.125 µg/mL; in [2], under 0.125 µg/mL; in assay [3], under 0.125 µg/mL; in assay [4] it was 0.25 µg/mL (≈ 0.215 µM); in assay [5] it was 0.25 µg/mL (≈ 0.215 µM); in assay [6] it was under 0.125 µg/mL. In addition, the Minimum inhibitory concentration is under 0.125 µg/mL in assay [7]; 0.25 µg/mL (≈ 0.215 µM) in [8]; 0.5 µg/mL (≈ 0.429 µM) in [9]; 0.5 µg/mL (≈ 0.429 µM) in assay [10]; 0.5 µg/mL (≈ 0.429 µM) in assay [11]; 1 µg/mL (≈ 0.858 µM) in assay [12]. Also, the Minimum inhibitory concentration in assay [13] is 0.25 µg/mL (≈ 0.215 µM).
As for `CC[C@@H]1NC(=O)[C@@H](CC(C)C)NC(=O)[C@H](CCN)NC(=O)[C@@H](NC(=O)[C@H](CN)NC(=O)[C@@H](NC(=O)[C@H](CCN)NC(=O)c2cc(-c3ccccc3)no2)[C@@H](C)O)CCNC(=O)[C@H]([C@@H](C)O)NC(=O)[C@H](CCN)NC(=O)[C@H](CCN)NC1=O` [Compound 87] (X44-[Dab]T[Dap][Dab][Dab][dL][Abu][Dab][Dab]T; lactam 4-C), the Minimum inhibitory concentration in [1] was 0.5 µg/mL (≈ 0.432 µM); in [2], 0.5 µg/mL (≈ 0.432 µM); in assay [3], under 0.125 µg/mL; in [4] it was under 0.125 µg/mL; in assay [5], 0.25 µg/mL (≈ 0.216 µM); in [6], under 0.125 µg/mL. For the same molecule, the Minimum inhibitory concentration stood at 0.25 µg/mL (≈ 0.216 µM) in assay [7]; 0.5 µg/mL (≈ 0.432 µM) in assay [8]; 1 µg/mL (≈ 0.863 µM) in assay [9]; 0.5 µg/mL (≈ 0.432 µM) in assay [10]; 0.5 µg/mL (≈ 0.432 µM) in [11]; 1 µg/mL (≈ 0.863 µM) in assay [12]. In [13], the Minimum inhibitory concentration came to 0.5 µg/mL (≈ 0.432 µM).
Consider `CC[C@@H]1NC(=O)[C@@H](CC(C)C)NC(=O)[C@H](CCN)NC(=O)[C@@H](NC(=O)[C@H](CN)NC(=O)[C@@H](NC(=O)[C@H](CCN)NC(=O)c2cc(Br)cs2)[C@@H](C)O)CCNC(=O)[C@H]([C@@H](C)O)NC(=O)[C@H](CCN)NC(=O)[C@H](CCN)NC1=O` [Compound 88] (X10-[Dab]T[Dap][Dab][Dab][dL][Abu][Dab][Dab]T; lactam 4-C), for which the Minimum inhibitory concentration in [1] is 0.5 µg/mL (≈ 0.425 µM); in assay [2], 0.5 µg/mL (≈ 0.425 µM); in assay [3], under 0.125 µg/mL; in assay [4] it was 0.5 µg/mL (≈ 0.425 µM); in assay [5], 0.5 µg/mL (≈ 0.425 µM); in assay [6], under 0.125 µg/mL. For the same molecule, the Minimum inhibitory concentration came to 0.5 µg/mL (≈ 0.425 µM) in assay [7]; 0.25 µg/mL (≈ 0.213 µM) in [8]; 0.5 µg/mL (≈ 0.425 µM) in assay [9]; 0.5 µg/mL (≈ 0.425 µM) in [10]; 0.5 µg/mL (≈ 0.425 µM) in assay [11]; 0.5 µg/mL (≈ 0.425 µM) in [12]. In assay [13], this molecule registered a Minimum inhibitory concentration of 0.5 µg/mL (≈ 0.425 µM).
As for `CC[C@@H]1NC(=O)[C@@H](CC(C)C)NC(=O)[C@H](CCN)NC(=O)[C@@H](NC(=O)[C@H](CN)NC(=O)[C@@H](NC(=O)[C@H](CCN)NC(=O)c2sccc2Cl)[C@@H](C)O)CCNC(=O)[C@H]([C@@H](C)O)NC(=O)[C@H](CCN)NC(=O)[C@H](CCN)NC1=O` [Compound 89] (X71-[Dab]T[Dap][Dab][Dab][dL][Abu][Dab][Dab]T; lactam 4-C), the Minimum inhibitory concentration in [1] was 4 µg/mL (≈ 3.53 µM); in assay [2], 4 µg/mL (≈ 3.53 µM); in assay [3], under 0.125 µg/mL; in assay [4], under 0.125 µg/mL; in [5] it was under 0.125 µg/mL; in assay [6], under 0.125 µg/mL. The Minimum inhibitory concentration in [7] was 0.25 µg/mL (≈ 0.221 µM); in assay [8], under 0.125 µg/mL; in [9], 0.25 µg/mL (≈ 0.221 µM); in [10], 0.25 µg/mL (≈ 0.221 µM); in assay [11], 0.25 µg/mL (≈ 0.221 µM); in assay [12] it was 1 µg/mL (≈ 0.884 µM). Besides, the Minimum inhibitory concentration in assay [13] worked out at 2 µg/mL (≈ 1.77 µM).
For `CC[C@@H]1NC(=O)[C@@H](CC(C)C)NC(=O)[C@H](CCN)NC(=O)[C@@H](NC(=O)[C@H](CN)NC(=O)[C@@H](NC(=O)[C@H](CCN)NC(=O)c2cc3sccc3[nH]2)[C@@H](C)O)CCNC(=O)[C@H]([C@@H](C)O)NC(=O)[C@H](CCN)NC(=O)[C@H](CCN)NC1=O` [Compound 90] (X38-[Dab]T[Dap][Dab][Dab][dL][Abu][Dab][Dab]T; lactam 4-C), the Minimum inhibitory concentration is 2 µg/mL (≈ 1.76 µM) in assay [1]; 1 µg/mL (≈ 0.88 µM) in [2]; under 0.125 µg/mL in assay [3]; under 0.125 µg/mL in assay [4]; 0.5 µg/mL (≈ 0.44 µM) in assay [5]; under 0.125 µg/mL in assay [6]. In addition, the Minimum inhibitory concentration in assay [7] stood at 0.25 µg/mL (≈ 0.22 µM); in assay [8] it was 0.25 µg/mL (≈ 0.22 µM); in assay [9] it was 0.5 µg/mL (≈ 0.44 µM); in assay [10], 0.25 µg/mL (≈ 0.22 µM); in assay [11], 0.5 µg/mL (≈ 0.44 µM); in assay [12], 0.5 µg/mL (≈ 0.44 µM). Also, the Minimum inhibitory concentration in [13] was 0.5 µg/mL (≈ 0.44 µM).
